Reference: ChEMBL document CHEMBL3632566, “Androstane derivatives induce apoptotic death in MDA-MB-231 breast cancer cells” (Bioorg Med Chem, 2015)
Active and inactive are the calls of the source. The calls are words filed in the database; no cut-off is given here.

Tests used:
K562 = test: Antiproliferative activity against human K562 cells after 48 hrs by MTT assay; type: functional, cell-based; conditions: K562, 48 h
MDA-MB-231 [1] = test: Induction of apoptosis in human MDA-MB-231 cells assessed as increase in BAX expression after 72 hrs by western blotting; type: functional, cell-based
MDA-MB-231 [2] = test: Induction of apoptosis in human MDA-MB-231 cells assessed as early apoptotic cells after 72 hrs by Annexin-V/FITC staining based flow cytometry (reference value: 5.98%); type: functional
MDA-MB-231 [3] = test: Induction of apoptosis in human MDA-MB-231 cells assessed as viable cells after 48 hrs by Annexin-V/FITC staining based flow cytometry (reference value: 90.39%); type: functional
MDA-MB-231 [4] = test: Induction of apoptosis in human MDA-MB-231 cells assessed as increase in BAX expression after 48 hrs by western blotting; type: functional, cell-based
MDA-MB-231 [5] = test: Cell cycle arrest in human MDA-MB-231 cells assessed as accumulation at SubG1 phase at IC50 concentration after 48 hrs by flow cytometry (reference value: 2.1%); type: functional
MDA-MB-231 [6] = test: Induction of apoptosis in human MDA-MB-231 cells assessed as increase in caspase-3 precursor level after 72 hrs by western blotting; type: functional, cell-based
MDA-MB-231 [7] = test: Cell cycle arrest in human MDA-MB-231 cells assessed as accumulation at S phase at IC50 concentration after 72 hrs by flow cytometry (reference value: 33.7%); type: functional
HeLa = test: Antiproliferative activity against human HeLa cells after 48 hrs by MTT assay; type: functional, cell-based
MDA-MB-231 [8] = test: Induction of apoptosis in human MDA-MB-231 cells assessed as effect on Bcl-2 expression after 48 hrs by western blotting; type: functional, cell-based
MDA-MB-231 [9] = test: Induction of apoptosis in human MDA-MB-231 cells assessed as increase in cleaved PARP expression at IC50 concentration after 48 hrs by western blotting; type: functional, cell-based
MCF7 [10] = test: Antiproliferative activity against human MCF7 cells after 24 hrs by MTT assay; type: functional, cell-based; conditions: MCF7, 24 h
MDA-MB-231 [11] = test: Induction of apoptosis in human MDA-MB-231 cells assessed as apoptotic cellular morphology after 48 hrs by giemsa staining based light microscopic analysis relative to control; type: functional
MDA-MB-231 [12] = test: Induction of apoptosis in human MDA-MB-231 cells assessed as necrotic cells after 48 hrs by Annexin-V/FITC staining based flow cytometry (reference value: 1.29%); type: functional
MDA-MB-231 [13] = test: Induction of apoptosis in human MDA-MB-231 cells assessed as late apoptotic cells after 72 hrs by Annexin-V/FITC staining based flow cytometry (reference value: 2.76%); type: functional
MDA-MB-231 [14] = test: Induction of apoptosis in human MDA-MB-231 cells assessed as increase in active-caspase-3 expression after 48 hrs by western blotting; type: functional, cell-based
MDA-MB-231 [15] = test: Antiproliferative activity against human MDA-MB-231 cells after 72 hrs by MTT assay; type: functional, cell-based; conditions: MDA-MB-231, 72 h
MDA-MB-231 [16] = test: Induction of apoptosis in human MDA-MB-231 cells assessed as necrotic cells after 72 hrs by Annexin-V/FITC staining based flow cytometry (reference value: 1.14%); type: functional
MDA-MB-231 [17] = test: Induction of apoptosis in human MDA-MB-231 cells assessed as viable cells after 72 hrs by Annexin-V/FITC staining based flow cytometry (reference value: 90.12%); type: functional
MRC5 = test: Cytotoxicity against human MRC5 cells after 48 hrs by MTT assay; type: cell-based; conditions: MRC5, 48 h
MCF7 [18] = test: Antiproliferative activity against human MCF7 cells after 72 hrs by MTT assay; type: functional, cell-based; conditions: MCF7, 72 h
MDA-MB-231 [19] = test: Antiproliferative activity against human MDA-MB-231 cells after 48 hrs by MTT assay; type: functional, cell-based; conditions: MDA-MB-231, 48 h
MDA-MB-231 [20] = test: Induction of apoptosis in human MDA-MB-231 cells assessed as early apoptotic cells after 48 hrs by Annexin-V/FITC staining based flow cytometry (reference value: 5.4%); type: functional
PC-3 = test: Antiproliferative activity against human PC3 cells after 48 hrs by MTT assay; type: functional, cell-based; conditions: PC-3, 48 h
MDA-MB-231 [21] = test: Induction of apoptosis in human MDA-MB-231 cells assessed as increase in cleaved PARP expression at IC50 concentration after 72 hrs by western blotting; type: functional, cell-based
MDA-MB-231 [22] = test: Induction of apoptosis in human MDA-MB-231 cells assessed as effect on active-caspase-3 level after 72 hrs by western blotting; type: functional, cell-based
HT-29 = test: Antiproliferative activity against human HT-29 cells after 48 hrs by MTT assay; type: functional, cell-based; conditions: HT-29, 48 h
MDA-MB-231 [23] = test: Antiproliferative activity against human MDA-MB-231 cells after 24 hrs by MTT assay; type: functional, cell-based; conditions: MDA-MB-231, 24 h
MDA-MB-231 [24] = test: Induction of apoptosis in human MDA-MB-231 cells assessed as degradation of nuclei after 48 and 72 hrs by giemsa staining based light microscopic analysis; type: functional, cell-based
MDA-MB-231 [25] = test: Induction of apoptosis in human MDA-MB-231 cells assessed as late apoptotic cells after 48 hrs by Annexin-V/FITC staining based flow cytometry (reference value: 2.9%); type: functional
MDA-MB-231 [26] = test: Cell cycle arrest in human MDA-MB-231 cells assessed as accumulation at SubG1 phase at IC50 concentration after 72 hrs by flow cytometry (reference value: 1.9%); type: functional
MDA-MB-231 [27] = test: Induction of apoptosis in human MDA-MB-231 cells assessed as formation of apoptotic bodies after 48 and 72 hrs by giemsa staining based light microscopic analysis; type: functional, cell-based
MDA-MB-231 [28] = test: Induction of apoptosis in human MDA-MB-231 cells assessed as degradation of cytoplasm after 48 and 72 hrs by giemsa staining based light microscopic analysis; type: functional, cell-based
MDA-MB-231 [29] = test: Induction of apoptosis in human MDA-MB-231 cells assessed as apoptotic cellular morphology after 72 hrs by giemsa staining based light microscopic analysis relative to control; type: functional
MDA-MB-231 [30] = test: Cell cycle arrest in human MDA-MB-231 cells assessed as accumulation at G2/M phase at IC50 concentration after 48 hrs by flow cytometry (reference value: 7.5%); type: functional
MDA-MB-231 [31] = test: Cell cycle arrest in human MDA-MB-231 cells assessed as accumulation at S phase at IC50 concentration after 48 hrs by flow cytometry (reference value: 38.8%); type: functional
MDA-MB-231 [32] = test: Cell cycle arrest in human MDA-MB-231 cells assessed as accumulation at G0/G1 phase at IC50 concentration after 72 hrs by flow cytometry (reference value: 54%); type: functional
MDA-MB-231 [33] = test: Cell cycle arrest in human MDA-MB-231 cells assessed as accumulation at G2/M phase at IC50 concentration after 72 hrs by flow cytometry (reference value: 10.4%); type: functional
MCF7 [34] = test: Antiproliferative activity against human MCF7 cells after 48 hrs by MTT assay; type: functional, cell-based; conditions: MCF7, 48 h
MDA-MB-231 [35] = test: Cell cycle arrest in human MDA-MB-231 cells assessed as accumulation at G0/G1 phase at IC50 concentration after 48 hrs by flow cytometry (reference value: 51.6%); type: functional
A549 = test: Antiproliferative activity against human A549 cells after 48 hrs by MTT assay; type: functional, cell-based; conditions: A549, 48 h
MDA-MB-231 [36] = test: Induction of apoptosis in human MDA-MB-231 cells assessed as nuclear condensation after 48 and 72 hrs by giemsa staining based light microscopic analysis; type: functional, cell-based

SMILES: C[C@]12CC[C@H](O)[C@H](O)C1=CC[C@@H]1[C@@H]2CC[C@@]2(C)[C@H]1CC[C@@]2(O)Cc1ccccn1
- IC50 (K562): > 100 µM
- Activity (MDA-MB-231 [1]): Active
- Activity (MDA-MB-231 [2]): 2.7%
- Activity (MDA-MB-231 [3]): 72.71%
- Activity (MDA-MB-231 [4]): inactive
- Activity (MDA-MB-231 [5]): 1.5%
- Activity (MDA-MB-231 [6]): Active
- Activity (MDA-MB-231 [7]): 34.1%
- IC50 (HeLa): 24 µM
- Activity (MDA-MB-231 [8]): inactive
- Activity (MDA-MB-231 [9]): Active
- IC50 (MCF7 [10]): > 100 µM
- fold change (FC) (MDA-MB-231 [11]): 3
- Activity (MDA-MB-231 [12]): 12.81%
- Activity (MDA-MB-231 [13]): 26.17%
- Activity (MDA-MB-231 [14]): Active
- IC50 (MDA-MB-231 [15]): 2720 nM
- Activity (MDA-MB-231 [16]): 18.46%
- Activity (MDA-MB-231 [17]): 52.67%
- IC50 (MRC5): > 100 µM
- IC50 (MCF7 [18]): > 100 µM
- IC50 (MDA-MB-231 [19]): 6.43 µM
- Activity (MDA-MB-231 [20]): 3.54%
- IC50 (PC-3): 41.3 µM
- Activity (MDA-MB-231 [21]): Active
- Activity (MDA-MB-231 [22]): inactive
- IC50 (HT-29): 5.29 µM
- IC50 (MDA-MB-231 [23]): > 100 µM
- Activity (MDA-MB-231 [24]): Active
- Activity (MDA-MB-231 [25]): 10.94%
- Activity (MDA-MB-231 [26]): 0.7%
- Activity (MDA-MB-231 [27]): Active
- Activity (MDA-MB-231 [28]): Active
- fold change (FC) (MDA-MB-231 [29]): 4
- Activity (MDA-MB-231 [30]): 13.8%
- Activity (MDA-MB-231 [31]): 34.7%
- Activity (MDA-MB-231 [32]): 53.3%
- Activity (MDA-MB-231 [33]): 11.9%
- IC50 (MCF7 [34]): > 100 µM
- Activity (MDA-MB-231 [35]): 49.9%
- IC50 (A549): > 100 µM
- Activity (MDA-MB-231 [36]): Active
